Tests used:
FAK [1] = biological target: T1, FAK (Homo sapiens, UniProt Q05397); assay: Cell-based capture ELISA for inhibition of FAK autophosphorylation [pY397] in MiaPaCa2 cells
Procedure: Cell-Based Assays for Inhibition of FAK Autophosphorylation: MiaPaCa2 and U87MG
ELISA kit from Invitrogen (KHO0441).
Reagents Provided in Biosource FAK [pY397]
The cells were then suspended in cell assay medium.

FAK [2] = biological target: T1, FAK; assay: biochemical
[3] = MIA-PaCa2 cells, + 50% mouse plasma (Table 3), read-out: Mean FAK Cell Mechanistic IC50 + 50% mP MIA-PaCa2
[4] = MIA-PaCa2 cells on fibronectin, 2 h, no plasma, read-out: Mean FAK Cell Mechanistic IC50 MIA-PaCa2
[5] = MIA-PaCa2 cells, + 50% human plasma, read-out: Mean FAK Cell Mechanistic IC50 + 50% hP MIA-PaCa2
[6] = MIA-PaCa2 cells, + 50% mouse plasma (Table 2), read-out: Mean FAK Cell Mechanistic IC50 + 50% mP MIA-PaCa2

T1 sequence (Q05397 whole entry): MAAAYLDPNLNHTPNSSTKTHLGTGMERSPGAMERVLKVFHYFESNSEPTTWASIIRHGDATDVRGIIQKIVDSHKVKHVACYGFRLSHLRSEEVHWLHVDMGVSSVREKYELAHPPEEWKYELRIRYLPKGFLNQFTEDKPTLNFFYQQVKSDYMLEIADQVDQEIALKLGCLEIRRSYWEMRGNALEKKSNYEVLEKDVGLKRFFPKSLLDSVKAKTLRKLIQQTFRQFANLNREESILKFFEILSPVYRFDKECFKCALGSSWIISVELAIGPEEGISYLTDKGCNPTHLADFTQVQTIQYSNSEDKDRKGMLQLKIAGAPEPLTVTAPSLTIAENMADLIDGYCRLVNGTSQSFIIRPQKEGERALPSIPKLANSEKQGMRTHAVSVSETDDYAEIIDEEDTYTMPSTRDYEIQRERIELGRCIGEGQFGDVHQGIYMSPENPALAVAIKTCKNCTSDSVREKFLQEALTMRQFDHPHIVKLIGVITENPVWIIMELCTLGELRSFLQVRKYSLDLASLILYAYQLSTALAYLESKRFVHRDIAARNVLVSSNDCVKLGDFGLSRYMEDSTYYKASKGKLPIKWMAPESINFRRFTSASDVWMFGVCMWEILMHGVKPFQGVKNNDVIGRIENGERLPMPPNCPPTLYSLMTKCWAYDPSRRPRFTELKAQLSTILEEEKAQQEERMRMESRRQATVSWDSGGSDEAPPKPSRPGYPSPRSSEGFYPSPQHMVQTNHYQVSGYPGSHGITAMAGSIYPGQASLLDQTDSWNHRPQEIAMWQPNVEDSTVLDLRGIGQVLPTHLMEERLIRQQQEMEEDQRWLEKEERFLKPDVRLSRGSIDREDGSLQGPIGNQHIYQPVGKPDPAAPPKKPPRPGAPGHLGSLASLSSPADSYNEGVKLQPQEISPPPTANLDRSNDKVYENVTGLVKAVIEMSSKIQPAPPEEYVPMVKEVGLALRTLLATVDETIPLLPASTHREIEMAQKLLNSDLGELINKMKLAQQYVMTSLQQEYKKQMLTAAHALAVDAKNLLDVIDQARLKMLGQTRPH

| IC50 (FAK [1]; [4]) [µM] | IC50 (FAK [1]; [5]) [µM] | IC50 (FAK [1]; [6]) [µM] | Structure (SMILES) | IC50 (FAK [1]; [3]) [µM] | IC50 (FAK [2]) [µM] |
| --- | --- | --- | --- | --- | --- |
| – | – | – | CCOP(=O)(Cc1ccc(Nc2ncc(C(F)(F)F)c(Nc3ccc(N4CCOCC4)c4c3C(=O)N(C)C4)n2)cc1)OCC [Example 208, Diethyl (4-{[4-{[2-methyl-7-(morpholin-4-yl)-3-oxo-2,3-dihydro-1H-isoindol-4-yl]amino}-5-(trifluoromethyl)pyrimidin-2-yl]amino}benzyl)phosphonate] | < 1 | < 1 |
| < 1 | < 1 | < 1 | CN(c1ncccc1CNc1nc(Nc2cccc(CP(C)(C)=O)c2)ncc1C(F)(F)F)S(C)(=O)=O [Example 13, N-[3-({[2-({3-[(Dimethylphosphoryl)methyl]phenyl}amino)-5-(trifluoromethyl)pyrimidin-4-yl]amino}methyl)pyridin-2-yl]-N-methylmethanesulfonamide] | – | < 1 |
| – | – | – | CCOP(=O)(OCC)C1CCC(c2ccc(Nc3nc(Nc4ccccc4OC)ncc3C(F)(F)F)c3c2CN(C)C3=O)CC1 (mixture of isomers) [Example 193, Diethyl {4-[7-({2-[(2-methoxyphenyl)amino]-5-(trifluoromethyl)pyrimidin-4-yl}amino)-2-methyl-1-oxo-2,3-dihydro-1H-isoindol-4-yl]cyclohexyl}phosphonate] | < 1 | < 1 |
| – | – | – | CNC(=O)c1ccccc1Nc1nc(Nc2ccc(CP(=O)(OCCOC)OCCOC)cc2OC)ncc1C(F)(F)F [Example 221, Bis(2-methoxyethyl) (3-methoxy-4-{[4-{[2-(methylcarbamoyl)phenyl]amino}-5-(trifluoromethyl)pyrimidin-2-yl]amino}benzyl)phosphonate] | < 1 | < 1 |
| – | – | – | CCOP(=O)(Cc1ccc(Nc2ncc(C(F)(F)F)c(Nc3cccc4c3C(=O)N(C)CC4)n2)cc1)OCC [Example 132, Diethyl [4-({4-[(2-methyl-1-oxo-1,2,3,4-tetrahydroisoquinolin-8-yl)amino]-5-(trifluoromethyl)pyrimidin-2-yl}amino)benzyl]phosphonate] | < 1 | < 1 |
| < 1 | < 1 | 1 to 10 | CCCCOP(=O)(Cc1ccc(Nc2ncc(C(F)(F)F)c(NCc3cccnc3N(C)S(C)(=O)=O)n2)cc1)OCCCC [Example 26, Dibutyl [4-({4-[({2-[methyl(methylsulfonyl)amino]pyridin-3-yl}methyl)amino]-5-(trifluoromethyl)pyrimidin-2-yl}amino)benzyl]phosphonate] | – | < 1 |
| – | – | – | CCOc1cc(CP(=O)(OCC)OCC)ccc1Nc1ncc(C(F)(F)F)c(Nc2ccc([C@H]3CC[C@@H](C(=O)OCC)CC3)c3c2C(=O)N(C)C3)n1 [Example 244, Ethyl cis-4-(7-{[2-({4-[(diethoxyphosphoryl)methyl]-2-ethoxyphenyl}amino)-5-(trifluoromethyl)pyrimidin-4-yl]amino}-2-methyl-1-oxo-2,3-dihydro-1H-isoindol-4-yl)cyclohexanecarboxylate] | 1 to 10 | < 1 |
| < 1 | < 1 | < 1 | CN(c1ncccc1CNc1nc(Nc2ccc(P(C)(C)=O)cc2)ncc1C(F)(F)F)S(C)(=O)=O [Example 14, N-[3-({[2-{[4-(Dimethylphosphoryl)phenyl]amino}-5-(trifluoromethyl)pyrimidin-4-yl]amino}methyl)pyridin-2-yl]-N-methylmethanesulfonamide] | – | < 1 |
| – | – | – | CCOP(=O)(Cc1ccc(Nc2ncc(C(F)(F)F)c(Nc3ccc(-c4cnn(C[C@H](O)CO)c4)c4c3C(=O)N(C)C4)n2)cc1)OCC [Example 101, Diethyl [4-({4-[(7-{1-[(2S)-2,3-dihydroxypropyl]-1H-pyrazol-4-yl}-2-methyl-3-oxo-2,3-dihydro-1H-isoindol-4-yl)amino]-5-(trifluoromethyl)pyrimidin-2-yl}amino)benzyl]phosphonate] | < 1 | < 1 |
| – | – | – | COc1cc(CP(=O)(OCC(F)(F)F)OCC(F)(F)F)ccc1Nc1ncc(C(F)(F)F)c(Nc2cccc3c2C(=O)N(C)C3)n1 [Example 124, Bis(2,2,2-trifluoroethyl) [3-methoxy-4-({4-[(2-methyl-3-oxo-2,3-dihydro-1H-isoindol-4-yl)amino]-5-(trifluoromethyl)pyrimidin-2-yl}amino)benzyl]phosphonate] | < 1 | < 1 |
| < 1 | < 1 | < 1 | CN(c1ncccc1CNc1nc(Nc2ccc(CP3(=O)OCC(C)(C)CO3)cc2)ncc1C(F)(F)F)S(C)(=O)=O [Example 32, N-[3-({[2-({4-[(5,5-dimethyl-2-oxido-1,3,2-dioxaphosphinan-2-yl)methyl]phenyl}amino)-5-(trifluoromethyl)pyrimidin-4-yl]amino}methyl)pyridin-2-yl]-N-methylmethanesulfonamide] | – | < 1 |
| < 1 | 1 to 10 | 1 to 10 | CCC(C)OP(=O)(Cc1ccc(Nc2ncc(C(F)(F)F)c(NCc3cccnc3N(C)S(C)(=O)=O)n2)cc1)OC(C)CC (stereo not shown) [Example 29, dibutan-2-yl [4-({4-[({2-[methyl(methylsulfonyl)amino]pyridin-3-yl}methyl)amino]-5-(trifluoromethyl)pyrimidin-2-yl}amino)benzyl]phosphonate] | – | < 1 |
| – | – | – | CCOP(=O)(Cc1ccc(Nc2ncc(C(F)(F)F)c(Nc3ccc(N4CCN(C(C)=O)CC4)c4c3C(=O)N(C)C4)n2)c(OC)c1)OCC [Example 223, Diethyl (4-{[4-{[7-(4-acetylpiperazin-1-yl)-2-methyl-3-oxo-2,3-dihydro-1H-isoindol-4-yl]amino}-5-(trifluoromethyl)pyrimidin-2-yl]amino}-3-methoxybenzyl)phosphonate] | < 1 | < 1 |
| < 1 | < 1 | < 1 | CN(c1ncccc1CNc1nc(Nc2ccc(CP3(=O)OCCCO3)cc2)ncc1C(F)(F)F)S(C)(=O)=O [Example 31, N-methyl-N-[3-({[2-({4-[(2-oxido-1,3,2-dioxaphosphinan-2-yl)methyl]phenyl}amino)-5-(trifluoromethyl)pyrimidin-4-yl]amino}methyl)pyridin-2-yl]methanesulfonamide] | – | < 1 |
| – | – | – | CN1Cc2c(c(Nc3nc(Nc4ccc(CP(=O)(OCC(F)(F)F)OCC(F)(F)F)cc4)ncc3C(F)(F)F)ccc2[C@H]2CC[C@H](O)CC2)C1=O [Example 165, Bis(2,2,2-trifluoroethyl) (4-{[4-{[7-(trans-4-hydroxycyclohexyl)-2-methyl-3-oxo-2,3-dihydro-1H-isoindol-4-yl]amino}-5-(trifluoromethyl)pyrimidin-2-yl]amino}benzyl)phosphonate] | < 1 | < 1 |
| – | – | – | CCOP(=O)(Cc1ccc(Nc2ncc(C(F)(F)F)c(Nc3cccc4c3C(=O)N(C)C4(C)C)n2)c(OC)c1)OCC [Example 148, Diethyl [3-methoxy-4-({5-(trifluoromethyl)-4-[(1,1,2-trimethyl-3-oxo-2,3-dihydro-1H-isoindol-4-yl)amino]pyrimidin-2-yl}amino)benzyl]phosphonate] | 1 to 10 | < 1 |

| Structure (SMILES) | IC50 (FAK [1]; [4]) [µM] | IC50 (FAK [1]; [5]) [µM] | IC50 (FAK [1]; [6]) [µM] | IC50 (FAK [1]; [3]) [µM] | IC50 (FAK [2]) [µM] |
| --- | --- | --- | --- | --- | --- |
| CCOP(C)(=O)Cc1ccc(Nc2ncc(C(F)(F)F)c(Nc3ccc(-c4cnn(C)c4)c4c3C(=O)N(C)C4)n2)cc1 (stereo not shown) [Example 63, Ethyl methyl(4-{[4-{[2-methyl-7-(1-methyl-1H-pyrazol-4-yl)-3-oxo-2,3-dihydro-1H-isoindol-4-yl]amino}-5-(trifluoromethyl)pyrimidin-2-yl]amino}benzyl)phosphinate] | < 1 | < 1 | – | – | < 1 |
| CCOP(C)(=O)Cc1ccc(Nc2ncc(C(F)(F)F)c(Nc3ccc(C#CC(C)O)c4c3C(=O)N(C)C4)n2)cc1 (stereo not shown) [Example 76, Ethyl (4-{[4-{[7-(3-hydroxybut-1-yn-1-yl)-2-methyl-3-oxo-2,3-dihydro-1H-isoindol-4-yl]amino}-5-(trifluoromethyl)pyrimidin-2-yl]amino}benzyl)methylphosphinate] | < 1 | 1 to 10 | – | – | < 1 |
| CCOP(=O)(O)Cc1ccc(Nc2ncc(C(F)(F)F)c(NCc3cccnc3N(C)S(C)(=O)=O)n2)cc1 [Example 42, Ethyl hydrogen [4-({4-[({2-[methyl(methylsulfonyl)amino]pyridin-3-yl}methyl)amino]-5-(trifluoromethyl)pyrimidin-2-yl}amino)benzyl]phosphonate] | 1 to 10 | 1 to 10 | – | – | < 1 |
| CCOP(=O)(Cc1ccc(Nc2ncc(C(F)(F)F)c(Nc3ccc(N4CCCC4)c4c3C(=O)N(C)C4)n2)c(OC)c1)OCC [Example 83, Diethyl (3-methoxy-4-{[4-{[2-methyl-3-oxo-7-(pyrrolidin-1-yl)-2,3-dihydro-1H-isoindol-4-yl]amino}-5-(trifluoromethyl)pyrimidin-2-yl]amino}benzyl)phosphonate] | – | – | < 1 | – | < 1 |
| CCOP(=O)(O)Cc1cccc(Nc2ncc(C(F)(F)F)c(NCc3cccnc3N(C)S(C)(=O)=O)n2)c1 [Example 44, Ethyl hydrogen [3-({4[({2-[methyl(methylsulfonyl)amino]pyridin-3-yl}methyl)amino]-5-(trifluoromethyl)pyrimidin-2-yl}amino)benzyl]phosphonate] | > 10 | > 10 | – | – | < 1 |
| CCOP(C)(=O)Cc1ccc(Nc2ncc(C(F)(F)F)c(Nc3ccc(N4CCCC4)c4c3C(=O)N(C)C4)n2)cc1 (stereo not shown) [Example 80, Ethyl methyl(4-{[4-{[2-methyl-3-oxo-7-(pyrrolidin-1-yl)-2,3-dihydro-1H-isoindol-4-yl]amino}-5-(trifluoromethyl)pyrimidin-2-yl]amino}benzyl)phosphinate] | < 1 | < 1 | – | – | < 1 |
